Measured values taken from patent publication US9034303B2, “Neuroprotective and neuro-restorative iron chelators and monoamine oxidase inhibitors and uses thereof” (priority 2010, dated 2015).
“Also recorded” adds a separate entry of the source.

Experiments:
[1] = Follow-up stability experiment at 37° C. in PBS; type: physicochemical
Procedure: (§1) Using high pressure liquid chromatography (HPLC), the stability of each of the tested compounds was determined by following its respective chemical character over time in either phosphate buffered saline (PBS) and/or 0.85% saline solution (sodium chloride). In each case, 0.5 mM of the tested compound in PBS or saline solution was incubated at 25° C. or at 37° C. for 20 hours or, in some cases, up to two days (48 hours).
In addition, in a follow-up experiment the instability of M30, and the stability of compounds 3, 7 and 8 was also confirmed at 37° C. in PBS, Table 2, below.

[2] = system: 6-OHDA-induced lesions of nigrostrial dopamine neurons; settings: prior publications; cited from earlier work
[3] = Cytotoxicity experiments conducted in the past with M30, HepG2; type: cell-based; settings: human, HepG2 cells, methods not identical, read-out: LC50 (μM) HepG2
Source text: (§2) Moreover, the outcomes of the cytotoxicity experiments compare very favorably with those conducted in the past with M30.

[4] = prior publications; cited from earlier work
[5] = target: MAO-B (Mus musculus (Mouse), UniProt Q8BW75); assay: In vivo MAO-B inhibition in mice after a single i.p. injection; settings: small intestine, one hour later
Procedure: (§3) For the MAO-inhibition study, mice (6 mice in each group) were injected intraperitoneally (i.p.) with compound 3 at the dosage of 5 or 10 mg/kg; or with M30 at the dosage of 10 mg/kg. Control mice received saline (0.1 mL) i.p. One hour later the mice were killed by cervical dislocation, while striatum and small intestine were removed rapidly and frozen in liquid nitrogen for further analysis. FIGS. 3 and 4 show MAO-A/MAO-B in vivo activity of compound 3 compared to the activity of M30. FIG. 3 presents an MAO inhibition in striatum, and FIG. 4 presents an MAO inhibition in intestine. The percent inhibition was computed based on comparison to control animals.

[6] = Cytotoxicity experiments conducted in the past with M30, A549; type: cell-based; settings: human, A549 cells, methods not identical, read-out: LC50 (μM) A549
Source text: as §2

[7] = Stability in aqueous solution (PBS or saline) followed by HPLC; type: physicochemical; settings: for Amount of compound remaining (%): 25° C., 0.5 mM
Procedure: as §1

[8] = system: SHSY-5Y; assay: Cytotoxicity experiments conducted in the past with M30, SHSY-5Y; type: cell-based, human; settings: past experiments
Source text: as §2

[9] = as above; type: cell-based, human; settings: human, SH-SY5Y cells; experiments conducted in the past, methods not identical; read-out: LC50 (μM) SHSY-5Y
Source text: as §2

[10] = target: MAO-A (Mus musculus (Mouse), UniProt Q64133); type: in vivo, mice; settings: mice, single i.p. injection, small intestine, one hour later
Procedure: as §3

Chain of MAO-B (Q8BW75 whole entry): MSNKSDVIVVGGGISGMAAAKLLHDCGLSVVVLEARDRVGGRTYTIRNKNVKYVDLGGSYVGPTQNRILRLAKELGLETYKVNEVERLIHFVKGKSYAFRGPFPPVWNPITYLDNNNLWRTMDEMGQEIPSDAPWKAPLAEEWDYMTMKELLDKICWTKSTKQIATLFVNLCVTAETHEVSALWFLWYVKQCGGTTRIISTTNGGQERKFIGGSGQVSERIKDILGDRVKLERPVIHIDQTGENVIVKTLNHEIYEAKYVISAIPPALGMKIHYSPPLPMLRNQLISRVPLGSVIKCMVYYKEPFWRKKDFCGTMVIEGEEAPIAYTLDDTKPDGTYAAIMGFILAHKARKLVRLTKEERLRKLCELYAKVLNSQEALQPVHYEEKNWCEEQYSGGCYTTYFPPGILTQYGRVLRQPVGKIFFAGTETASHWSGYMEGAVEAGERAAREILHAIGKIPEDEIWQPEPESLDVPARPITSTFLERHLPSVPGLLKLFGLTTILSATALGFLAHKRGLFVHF
Chain of MAO-A (Q64133 whole entry): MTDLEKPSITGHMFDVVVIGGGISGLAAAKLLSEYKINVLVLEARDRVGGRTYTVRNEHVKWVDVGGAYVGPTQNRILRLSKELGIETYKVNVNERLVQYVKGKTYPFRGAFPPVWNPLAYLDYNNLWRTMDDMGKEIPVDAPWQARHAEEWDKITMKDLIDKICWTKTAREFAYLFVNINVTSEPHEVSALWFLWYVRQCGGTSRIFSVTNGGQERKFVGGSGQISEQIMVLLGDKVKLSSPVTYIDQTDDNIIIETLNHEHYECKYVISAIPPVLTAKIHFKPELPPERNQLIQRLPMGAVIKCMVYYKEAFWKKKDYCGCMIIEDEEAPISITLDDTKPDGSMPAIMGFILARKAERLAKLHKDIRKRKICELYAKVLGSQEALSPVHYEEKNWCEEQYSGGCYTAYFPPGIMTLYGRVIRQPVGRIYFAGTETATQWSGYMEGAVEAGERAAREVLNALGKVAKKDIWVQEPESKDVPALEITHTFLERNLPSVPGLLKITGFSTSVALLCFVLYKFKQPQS

C#CCN(C)Cc1ccc(O)c2ncccc12 [Compound M30, 5-[(methyl-2-propyn-1-ylamino)methyl]-8-quinolinol, reference compound]
Stability at 37° C. in PBS (in words) [1]: instability | Amount of compound remaining (%) ([1]; 0.5 hours): 50.8% | Amount of compound remaining (%) ([1]; 1 hour): 54.9% | Amount of compound remaining (%) ([1]; 2 hours): 45.1% | Amount of compound remaining (%) ([1]; 4 hours): 24.3% | Amount of compound remaining (%) ([1]; 8 hours): 14.4% | Amount of compound remaining (%) ([1]; 24 hours): 4.26% | Activity against 6-OHDA in an animal model of Parkinson's disease [2]: active against 6-hydroxydopamine (6-OHDA) | CC50 [3]: 842 µM | Crossing of the BBB [4]: able to cross the BBB | MAO-B inhibition in intestine [5]: Reduced inhibition in the intestinal tissue versus striatal tissue | CC50 [6]: > 1000 µM | Stability in aqueous solution (in words) ([7]; PBS and/or saline solution): unstable in aqueous solution; also recorded: degraded in both PBS and saline solution | Amount of compound remaining (%) ([7]; PBS, 0.5 hours): 76% | Amount of compound remaining (%) ([7]; PBS, 2 hours): 57% | Amount of compound remaining (%) ([7]; PBS, 20 hours): 28% | Amount of compound remaining (%) ([7]; PBS, 48 hours): 15% | Amount of compound remaining (%) ([7]; saline, 0.5 hours): 98% | Amount of compound remaining (%) ([7]; saline, 2 hours): 85% | Amount of compound remaining (%) ([7]; saline, 20 hours): 22% | SHSY-5Y cell death (%) ([8]; with iron, M30 1 μM): 0.69% | SHSY-5Y cell death (%) ([8]; with iron, M30 10 μM): 78.6% | SHSY-5Y cell death (%) ([8]; with iron, M30 100 μM): 38.5% | SHSY-5Y cell death (%) ([8]; without iron, M30 1 μM): −2. % | SHSY-5Y cell death (%) ([8]; without iron, M30 10 μM): 1.0% | SHSY-5Y cell death (%) ([8]; without iron, M30 100 μM): 19. % | CC50 [9]: > 1000 µM | MAO-A inhibition in intestine [10]: Reduced inhibition in the intestinal tissue versus striatal tissue
